Key:
[1] = target: T1, Interferon regulatory factor 4 (Homo sapiens, UniProt Q15306); experiment: Inhibition of IRF4 (unknown origin) incubated for 1 hr by fluorescence polarization assay
T1 sequence (Q15306 whole entry): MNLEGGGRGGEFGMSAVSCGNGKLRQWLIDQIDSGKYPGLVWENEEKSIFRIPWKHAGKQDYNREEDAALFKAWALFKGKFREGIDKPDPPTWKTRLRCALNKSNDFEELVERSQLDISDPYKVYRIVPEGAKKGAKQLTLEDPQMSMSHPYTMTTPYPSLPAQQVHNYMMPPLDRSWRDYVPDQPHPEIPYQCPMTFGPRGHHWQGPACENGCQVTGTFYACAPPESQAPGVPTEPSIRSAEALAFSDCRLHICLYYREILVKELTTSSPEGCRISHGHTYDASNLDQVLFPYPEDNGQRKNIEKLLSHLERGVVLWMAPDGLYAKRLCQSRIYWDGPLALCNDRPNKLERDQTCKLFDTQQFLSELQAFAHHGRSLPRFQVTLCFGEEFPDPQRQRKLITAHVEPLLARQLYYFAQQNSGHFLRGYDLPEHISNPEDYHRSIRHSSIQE

[2] = Antiproliferative activity against human HaCaT cells assessed as inhibition of cell viability measured after 72 hrs by MTS assay; format: toxicity, cell-based
[3] = Antiproliferative activity against human HAF cells assessed as inhibition of cell viability measured after 72 hrs by MTS assay; format: toxicity, cell-based
[4] = Antiproliferative activity against human MM1.R cells assessed as inhibition of cell viability measured after 72 hrs by MTS assay; format: functional, cell-based; details: MM.1R
[5] = system: NCI-H929; experiment: Antiproliferative activity against human NCI-H929 cells assessed as inhibition of cell viability measured after 72 hrs by MTS assay; format: functional, cell-based; details: NCI-H929, 72 h
[6] = system: RPMI-8226; experiment: Antiproliferative activity against human RPMI-8226 cells assessed as inhibition of cell viability measured after 72 hrs by MTS assay; format: functional, cell-based; details: RPMI-8226, 72 h
[7] = Selectivity ratio IC50 for human RPMI-8226 cells to IC50 for human MM1.R cells; format: toxicity
[8] = Selectivity ratio IC50 for human RPMI-8226 cells to IC50 for human NCI-H929 cells; format: toxicity

| Structure (SMILES) | IC50 [1] | also measured |
| --- | --- | --- |
| COC(=O)[C@@H](C)[C@H]1CC[C@H]2[C@@H]3C(=O)C=C4C(C)(C)C(=O)C(C#N)=C[C@]4(C)[C@H]3CC[C@]12C | > 20 µM | – |
| COc1cc(NC(=O)[C@@H](C)[C@H]2CC[C@H]3[C@@H]4C(=O)C=C5C(C)(C)C(=O)C(C#N)=C[C@]5(C)[C@H]4CC[C@]23C)cc(OC)c1 | 7.06 µM | – |
| C[C@H](C(=O)OC1CCCC1)[C@H]1CC[C@H]2[C@@H]3C(=O)C=C4C(C)(C)C(=O)C(C#N)=C[C@]4(C)[C@H]3CC[C@]12C | > 20 µM | – |
| C[C@H](C(=O)n1ccnc1)[C@H]1CC[C@H]2[C@@H]3C(=O)C=C4C(C)(C)C(=O)C(C#N)=C[C@]4(C)[C@H]3CC[C@]12C | 3.88 µM | IC50 at 72 h [2]: > 100 µM; IC50 at 72 h [3]: > 100 µM; IC50 [4]: 4.46 µM; IC50 [5]: 2.57 µM; IC50 [6]: 7.65 µM; Ratio IC50 [7]: 1.7; Ratio IC50 [8]: 3 |
| COc1ccc(OC(=O)[C@@H](C)[C@H]2CC[C@H]3[C@@H]4C(=O)C=C5C(C)(C)C(=O)C(C#N)=C[C@]5(C)[C@H]4CC[C@]23C)cc1 | 9.37 µM | – |
| C[C@H](C(=O)Nc1cncnc1)[C@H]1CC[C@H]2[C@@H]3C(=O)C=C4C(C)(C)C(=O)C(C#N)=C[C@]4(C)[C@H]3CC[C@]12C | 9.65 µM | – |
| C[C@H](C(=O)Nc1ccc(C(F)(F)F)cc1)[C@H]1CC[C@H]2[C@@H]3C(=O)C=C4C(C)(C)C(=O)C(C#N)=C[C@]4(C)[C@H]3CC[C@]12C | > 20 µM | – |
| C[C@H](C(=O)Oc1ccccc1)[C@H]1CC[C@H]2[C@@H]3C(=O)C=C4C(C)(C)C(=O)C(C#N)=C[C@]4(C)[C@H]3CC[C@]12C | 8.1 µM | – |
| C[C@H](C(=O)Nc1ccc(Cl)cc1)[C@H]1CC[C@H]2[C@@H]3C(=O)C=C4C(C)(C)C(=O)C(C#N)=C[C@]4(C)[C@H]3CC[C@]12C | > 20 µM | – |
| C[C@H](C(=O)Nc1ccc2ncsc2c1)[C@H]1CC[C@H]2[C@@H]3C(=O)C=C4C(C)(C)C(=O)C(C#N)=C[C@]4(C)[C@H]3CC[C@]12C | 12.1 µM | – |
| COc1ccc(NC(=O)[C@@H](C)[C@H]2CC[C@H]3[C@@H]4C(=O)C=C5C(C)(C)C(=O)C(C#N)=C[C@]5(C)[C@H]4CC[C@]23C)cc1OC | 18.8 µM | – |
| C[C@H](C(=O)NC1CCCC1)[C@H]1CC[C@H]2[C@@H]3C(=O)C=C4C(C)(C)C(=O)C(C#N)=C[C@]4(C)[C@H]3CC[C@]12C | > 20 µM | – |
| C#CCNC(=O)[C@@H](C)[C@H]1CC[C@H]2[C@@H]3C(=O)C=C4C(C)(C)C(=O)C(C#N)=C[C@]4(C)[C@H]3CC[C@]12C | > 20 µM | – |
| C[C@H](C(=O)Nc1ccc2nccnc2c1)[C@H]1CC[C@H]2[C@@H]3C(=O)C=C4C(C)(C)C(=O)C(C#N)=C[C@]4(C)[C@H]3CC[C@]12C | 5.62 µM | – |
| C[C@H](C(=O)Oc1ccc(C(F)(F)F)cc1)[C@H]1CC[C@H]2[C@@H]3C(=O)C=C4C(C)(C)C(=O)C(C#N)=C[C@]4(C)[C@H]3CC[C@]12C | > 20 µM | – |
| C[C@H](CO)[C@H]1CC[C@H]2[C@@H]3C(=O)C=C4C(C)(C)C(=O)C(C#N)=C[C@]4(C)[C@H]3CC[C@]12C | > 20 µM | – |
| C[C@H](C(=O)O)[C@H]1CC[C@H]2[C@@H]3CC=C4C(C)(C)C(=O)C(C#N)=C[C@]4(C)[C@H]3CC[C@]12C | > 20 µM | – |
| C[C@H](C(=O)Nc1ccccc1)[C@H]1CC[C@H]2[C@@H]3C(=O)C=C4C(C)(C)C(=O)C(C#N)=C[C@]4(C)[C@H]3CC[C@]12C | 4.86 µM | IC50 at 72 h [2]: > 100 µM; IC50 at 72 h [3]: > 100 µM; IC50 [4]: 0.11 µM; IC50 [5]: 0.7 µM; IC50 [6]: 0.72 µM; Ratio IC50 [7]: 6.5; Ratio IC50 [8]: 1 |
| C[C@H](C(=O)Nc1nccs1)[C@H]1CC[C@H]2[C@@H]3C(=O)C=C4C(C)(C)C(=O)C(C#N)=C[C@]4(C)[C@H]3CC[C@]12C | 14.2 µM | – |
| C[C@H](C(=O)OC1CCCCC1)[C@H]1CC[C@H]2[C@@H]3C(=O)C=C4C(C)(C)C(=O)C(C#N)=C[C@]4(C)[C@H]3CC[C@]12C | > 20 µM | – |
| C=CCNC(=O)[C@@H](C)[C@H]1CC[C@H]2[C@@H]3C(=O)C=C4C(C)(C)C(=O)C(C#N)=C[C@]4(C)[C@H]3CC[C@]12C | > 20 µM | – |
| COc1ccc(NC(=O)CCC[C@@H](C)[C@H]2CC[C@H]3[C@@H]4C(=O)C=C5C(C)(C)C(=O)C(C#N)=C[C@]5(C)[C@H]4CC[C@]23C)cc1 | > 20 µM | – |

| Structure (SMILES) | IC50 [1] | also measured |
| --- | --- | --- |
| CCc1ccc(NC(=O)[C@@H](C)[C@H]2CC[C@H]3[C@@H]4C(=O)C=C5C(C)(C)C(=O)C(C#N)=C[C@]5(C)[C@H]4CC[C@]23C)cc1 | 12.8 µM | – |
| COc1ccc(NC(=O)C[C@@H](C)[C@H]2CC[C@H]3[C@@H]4C(=O)C=C5C(C)(C)C(=O)C(C#N)=C[C@]5(C)[C@H]4CC[C@]23C)cc1 | 15.1 µM | – |
| CCCCOc1ccc(NC(=O)[C@@H](C)[C@H]2CC[C@H]3[C@@H]4C(=O)C=C5C(C)(C)C(=O)C(C#N)=C[C@]5(C)[C@H]4CC[C@]23C)cc1 | 16.6 µM | – |
| C[C@H](C(=O)NC1CCCCC1)[C@H]1CC[C@H]2[C@@H]3C(=O)C=C4C(C)(C)C(=O)C(C#N)=C[C@]4(C)[C@H]3CC[C@]12C | 16.4 µM | – |
| COc1cccc(NC(=O)[C@@H](C)[C@H]2CC[C@H]3[C@@H]4C(=O)C=C5C(C)(C)C(=O)C(C#N)=C[C@]5(C)[C@H]4CC[C@]23C)c1 | 5.43 µM | – |
| COc1cc(NC(=O)[C@@H](C)[C@H]2CC[C@H]3[C@@H]4C(=O)C=C5C(C)(C)C(=O)C(C#N)=C[C@]5(C)[C@H]4CC[C@]23C)cc(OC)c1OC | 6.95 µM | – |
| CNC(=O)[C@@H](C)[C@H]1CC[C@H]2[C@@H]3C(=O)C=C4C(C)(C)C(=O)C(C#N)=C[C@]4(C)[C@H]3CC[C@]12C | 16.4 µM | – |
| C[C@H](C(=O)O)[C@H]1CC[C@H]2[C@@H]3C(=O)C=C4C(C)(C)C(=O)C=C[C@]4(C)[C@H]3CC[C@]12C | > 20 µM | – |
| CCCOC(=O)[C@@H](C)[C@H]1CC[C@H]2[C@@H]3C(=O)C=C4C(C)(C)C(=O)C(C#N)=C[C@]4(C)[C@H]3CC[C@]12C | > 20 µM | – |
| COc1ccccc1NC(=O)[C@@H](C)[C@H]1CC[C@H]2[C@@H]3C(=O)C=C4C(C)(C)C(=O)C(C#N)=C[C@]4(C)[C@H]3CC[C@]12C | 10.4 µM | – |
| CCNC(=O)[C@@H](C)[C@H]1CC[C@H]2[C@@H]3C(=O)C=C4C(C)(C)C(=O)C(C#N)=C[C@]4(C)[C@H]3CC[C@]12C | > 20 µM | – |
| CCCCc1ccc(NC(=O)[C@@H](C)[C@H]2CC[C@H]3[C@@H]4C(=O)C=C5C(C)(C)C(=O)C(C#N)=C[C@]5(C)[C@H]4CC[C@]23C)cc1 | > 20 µM | – |
| C[C@H](C(=O)Nc1ccccc1O)[C@H]1CC[C@H]2[C@@H]3C(=O)C=C4C(C)(C)C(=O)C(C#N)=C[C@]4(C)[C@H]3CC[C@]12C | 15 µM | – |
| C[C@H](C(=O)Oc1ccc(Cl)cc1)[C@H]1CC[C@H]2[C@@H]3C(=O)C=C4C(C)(C)C(=O)C(C#N)=C[C@]4(C)[C@H]3CC[C@]12C | > 20 µM | – |
| C[C@H](CO)[C@H]1CC[C@H]2[C@@H]3CCC4=CC(=O)CC[C@]4(C)[C@H]3CC[C@]12C | > 20 µM | – |
| C[C@H](C(=O)Nc1ncco1)[C@H]1CC[C@H]2[C@@H]3C(=O)C=C4C(C)(C)C(=O)C(C#N)=C[C@]4(C)[C@H]3CC[C@]12C | 7.61 µM | – |
| CCOc1ccc(NC(=O)[C@@H](C)[C@H]2CC[C@H]3[C@@H]4C(=O)C=C5C(C)(C)C(=O)C(C#N)=C[C@]5(C)[C@H]4CC[C@]23C)cc1 | 10.8 µM | – |
| CCOC(=O)[C@@H](C)[C@H]1CC[C@H]2[C@@H]3C(=O)C=C4C(C)(C)C(=O)C(C#N)=C[C@]4(C)[C@H]3CC[C@]12C | > 20 µM | – |
| C[C@H](C(=O)Nc1ccc2cc[nH]c2c1)[C@H]1CC[C@H]2[C@@H]3C(=O)C=C4C(C)(C)C(=O)C(C#N)=C[C@]4(C)[C@H]3CC[C@]12C | 11.6 µM | – |
| COc1ccc(NC(=O)CC[C@@H](C)[C@H]2CC[C@H]3[C@@H]4C(=O)C=C5C(C)(C)C(=O)C(C#N)=C[C@]5(C)[C@H]4CC[C@]23C)cc1 | 17.9 µM | – |
| C[C@H](C(=O)Nc1cccnc1)[C@H]1CC[C@H]2[C@@H]3C(=O)C=C4C(C)(C)C(=O)C(C#N)=C[C@]4(C)[C@H]3CC[C@]12C | 5.05 µM | – |
| CCCNC(=O)[C@@H](C)[C@H]1CC[C@H]2[C@@H]3C(=O)C=C4C(C)(C)C(=O)C(C#N)=C[C@]4(C)[C@H]3CC[C@]12C | > 20 µM | – |

Source: ChEMBL document CHEMBL6121019, “Design, synthesis and biological evaluation of bisnoralcohol derivatives as novel IRF4 inhibitors for the treatment of multiple myeloma” (Eur J Med Chem, 2025)
